Measurements as given in PMC6416077 (Journal of the American Chemical Society, 2019).

Biological target: T1, HsOMT (Hpm5) (Hypomyces subiculosus, UniProt B3FWS1)
T1 sequence (B3FWS1 1-398): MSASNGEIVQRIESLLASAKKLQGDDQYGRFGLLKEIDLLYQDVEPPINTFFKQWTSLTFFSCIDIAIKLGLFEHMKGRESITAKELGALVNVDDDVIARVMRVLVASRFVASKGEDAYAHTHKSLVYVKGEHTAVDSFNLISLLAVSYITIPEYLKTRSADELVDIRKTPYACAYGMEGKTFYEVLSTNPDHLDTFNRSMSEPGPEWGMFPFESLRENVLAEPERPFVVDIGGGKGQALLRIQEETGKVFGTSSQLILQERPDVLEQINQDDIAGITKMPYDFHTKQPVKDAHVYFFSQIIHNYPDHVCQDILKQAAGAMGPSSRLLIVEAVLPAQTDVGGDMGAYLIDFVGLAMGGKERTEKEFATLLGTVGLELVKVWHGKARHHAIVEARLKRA
Assay: biocatalytic O-methylation in S. cerevisiae expressing HsOMT, LC-MS
Format: cell-based
Settings: native substrate; OH-5 (para) methylation to 5-O-methyl-DHZ

C[C@H]1C/C=C/[C@@H](O)CCC/C=C/c2cc(O)cc(O)c2C(=O)O1 [compound 3, DHZ]
biocatalytic O-methylation in S. cerevisiae expressing HsOMT, LC-MS: methylates the C-5 phenolic hydroxyl of the RAL14
